Reference: patent publication US8188098B2, “GPR119 receptor agonists” (Hoffmann-La Roche Inc., priority 2008, dated 2012)
Counter-ions that a name gives are not always drawn.

Each compound was assayed against T1, GPR119 receptor (Mesocricetus auratus, UniProt A0A1U8CD06) (assay: cAMP assay in HIT-T15 hamster pancreatic islet cells (functional agonist activity)). Details: HIT-T15 cells endogenously expressing GPR119; 30 min at 25° C.; intracellular cAMP.
T1 construct: which endogenously express the GPR119 receptor; host or cells: HIT-T15 hamster pancreatic islet cells
T1 sequence (A0A1U8CD06 1-334): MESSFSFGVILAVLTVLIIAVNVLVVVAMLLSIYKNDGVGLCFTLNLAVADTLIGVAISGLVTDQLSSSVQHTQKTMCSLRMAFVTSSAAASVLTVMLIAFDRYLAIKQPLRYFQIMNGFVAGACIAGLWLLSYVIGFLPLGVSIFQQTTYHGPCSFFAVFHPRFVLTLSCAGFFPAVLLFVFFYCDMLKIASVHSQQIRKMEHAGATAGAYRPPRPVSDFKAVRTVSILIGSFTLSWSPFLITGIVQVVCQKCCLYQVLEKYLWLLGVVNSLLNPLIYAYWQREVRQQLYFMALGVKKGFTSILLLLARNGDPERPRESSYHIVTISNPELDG
Type: cell-based
Procedure: The functional agonist activities of compounds of the invention were characterized using a cAMP assay in HIT-T15 hamster pancreatic islet cells (American Type Culture Collection, Manassas, Va., USA) which endogenously express the GPR119 receptor. The cells were cultured in Kaighn's modification of Ham's F12 medium (Invitrogen Corporation, Carlsbad, Calif., USA) containing 10% horse serum, 2.5% FBS, and 1% Pen/Strep and grown in 225 cm^2 tissue culture flasks until they reached 75-85% confluence.
The cells were harvested 24 h prior to assay with 5 ml Versene®, washed with Kaighn/F12 medium and then plated into white 384-well plates (9000 cells/well) containing Kaighn/F12 medium. Prior to assay, the culture medium was replaced with a Kaighn/F12 medium without phenol red (50 μL/well) containing 0.5 mM 3-isobutyl-1-methylxanthine, 0.5 mg/ml BSA. The cells were incubated in the dark for 30 min at 25° C. in the absence or presence of varying concentrations of agonist (1 μL, 100% DMSO). The incubation media was discarded and replaced with the assay lysis buffer (50 μL/well) provided in the Tropix cAMP-Screen® kit (Applied Biosystems, Foster City, Calif., USA) and the plates incubated for 45 min at 37° C. The intracellular levels of cAMP generated in the HIT-T 15 cells were measured using the Tropix kit. In brief, 20 μL of the lysate was transferred into pre-coated antibody plates (384-well; Tropix kit) along with 10 μL of alkaline phosphatase conjugate and 20 μL of anti-cAMP antibody and the plates were incubated for 1 h at room temperature while shaking. The plates were then washed 5 times with wash buffer (70 μL) and tapped dry. CSPD®/Sapphire-II™ RTU substrate/enhancer solution (Applied Biosystems, Foster City, Calif., USA; 30 μL) was added and the plates were incubated for 45 min at room temperature while shaking. The signal generated was measured using a Wallac Victor V Luminometer (PerkinElmer Life And Analytical Sciences, Inc., Waltham, Mass., USA; 1 sec/well). EC50 values were calculated using the XLFit program (ID Business Solutions Ltd., Guildford, Surrey, UK).
`Cc1ncccc1Oc1ncnc2c1cnn2C1CCN(C(=O)OC(C)C)CC1` [Example 28, 4-[4-(2-Methyl-pyridin-3-yloxy)-pyrazolo[3,4-d]pyrimidin-1-yl]-piperidine-1-carboxylic acid isopropyl ester hydrochloride salt] showed an EC50 of 0.82 µM.
With `Cc1nc(S(C)(=O)=O)ccc1Oc1ncnc2c1cnn2C1CCN(C(=O)OC(C)C)CC1` [Example 29, 4-[4-(6-Methanesulfonyl-2-methyl-pyridin-3-yloxy)-pyrazolo[3,4-d]pyrimidin-1-yl]-piperidine-1-carboxylic acid isopropyl ester] the EC50 was 0.14 µM.
For `Cc1nc(-n2cncn2)ccc1Oc1ncnc2c1cnn2C1CCN(C(=O)OC(C)C)CC1` [Example 30, 4-[4-(2-Methyl-6-[1,2,4]triazol-1-yl-pyridin-3-yloxy)-pyrazolo[3,4-d]pyrimidin-1-yl]-piperidine-1-carboxylic acid isopropyl ester], the EC50 was 0.86 µM.
Compound `CC(C)OC(=O)N1CCC(n2ncc3c(Oc4ccc(=O)n(C)n4)ncnc32)CC1` [Example 31, 4-[4-(1-Methyl-6-oxo-1,6-dihydro-pyridazin-3-yloxy)-pyrazolo[3,4-d]pyrimidin-1-yl]-piperidine-1-carboxylic acid isopropyl ester] has an EC50 of 3.5 µM.
Work on `CC(C)(C)OC(=O)N1CCC(n2ncc3c(Oc4ccccc4F)ncnc32)CC1` [Example 32, 4-[4-(2-Fluoro-phenoxy)-pyrazolo[3,4-d]pyrimidin-1-yl]-piperidine-1-carboxylic acid tert-butyl ester] yielded an EC50 of 0.19 µM.
Work on `CC(C)(C)OC(=O)N1CCC(n2ncc3c(Oc4cccc(F)c4)ncnc32)CC1` [Example 33, 4-[4-(3-Fluoro-phenoxy)-pyrazolo[3,4-d]pyrimidin-1-yl]-piperidine-1-carboxylic acid tert-butyl ester] yielded an EC50 of 0.6 µM.
In the case of `CC(C)(C)OC(=O)N1CCC(n2ncc3c(Oc4ccc(F)cc4)ncnc32)CC1` [Example 34, 4-[4-(4-Fluoro-phenoxy)-pyrazolo[3,4-d]pyrimidin-1-yl]-piperidine-1-carboxylic acid tert-butyl ester], the EC50 is reported as 0.53 µM.
Compound `CC(C)(C)OC(=O)N1CCC(n2ncc3c(Oc4cc(F)c(F)cc4F)ncnc32)CC1` [Example 35, 4-[4-(2,4,5-Trifluoro-phenoxy)-pyrazolo[3,4-d]pyrimidin-1-yl]-piperidine-1-carboxylic acid tert-butyl ester] has an EC50 of 0.088 µM.
With `CC(C)(C)OC(=O)N1CCC(n2ncc3c(Oc4ccc(Cl)cc4Cl)ncnc32)CC1` [Example 38, 4-[4-(2,4-Dichloro-phenoxy)-pyrazolo[3,4-d]pyrimidin-1-yl]-piperidine-1-carboxylic acid tert-butyl ester] the EC50 was 0.49 µM.
`COc1ccc(Oc2ncnc3c2cnn3C2CCN(C(=O)OC(C)(C)C)CC2)cc1` [Example 39, 4-[4-(4-Methoxy-phenoxy)-pyrazolo[3,4-d]pyrimidin-1-yl]-piperidine-1-carboxylic acid tert-butyl ester] showed an EC50 of 0.72 µM.
`CCOc1ccc(Oc2ncnc3c2cnn3C2CCN(C(=O)OC(C)(C)C)CC2)cc1` [Example 40, 4-[4-(4-Ethoxy-phenoxy)-pyrazolo[3,4-d]pyrimidin-1-yl]-piperidine-1-carboxylic acid tert-butyl ester] showed an EC50 of 0.2 µM.
Work on `CC(C)(C)OC(=O)N1CCC(n2ncc3c(Oc4ccc5c(c4)OCO5)ncnc32)CC1` [Example 41, 4-[4-(Benzo[1,3]dioxol-5-yloxy)-pyrazolo[3,4-d]pyrimidin-1-yl]-piperidine-1-carboxylic acid tert-butyl ester] yielded an EC50 of 0.29 µM.
Work on `CC(C)(C)OC(=O)N1CCC(n2ncc3c(Oc4ccc(OC(F)(F)F)cc4)ncnc32)CC1` [Example 42, 4-[4-(4-Trifluoromethoxy-phenoxy)-pyrazolo[3,4-d]pyrimidin-1-yl]-piperidine-1-carboxylic acid tert-butyl ester] yielded an EC50 of 1.8 µM.
Compound `CCOc1ccc(Oc2ncnc3c2cnn3C2CCN(C(=O)OC(C)(C)C)CC2)c(F)c1` [Example 43, 4-[4-(4-Ethoxy-2-fluoro-phenoxy)-pyrazolo[3,4-d]pyrimidin-1-yl]-piperidine-1-carboxylic acid tert-butyl ester] has an EC50 of 0.018 µM.
With `COc1ccc(Oc2ncnc3c2cnn3C2CCN(C(=O)OC(C)(C)C)CC2)c(Cl)c1` [Example 44, 4-[4-(2-Chloro-4-methoxy-phenoxy)-pyrazolo[3,4-d]pyrimidin-1-yl]-piperidine-1-carboxylic acid tert-butyl ester] the EC50 was 0.19 µM.
With `CC(C)(C)OC(=O)N1CCC(n2ncc3c(Oc4ccccc4C#N)ncnc32)CC1` [Example 45, 4-[4-(2-Cyano-phenoxy)-pyrazolo[3,4-d]pyrimidin-1-yl]-piperidine-1-carboxylic acid tert-butyl ester] the EC50 was 0.061 µM.
For `CC(C)(C)OC(=O)N1CCC(n2ncc3c(Oc4ccc(C#N)cc4)ncnc32)CC1` [Example 46, 4-[4-(4-Cyano-phenoxy)-pyrazolo[3,4-d]pyrimidin-1-yl]-piperidine-1-carboxylic acid tert-butyl ester], the EC50 was 0.48 µM.
`CC(C)(C)OC(=O)N1CCC(n2ncc3c(Oc4ccc(C#N)cc4F)ncnc32)CC1` [Example 47, 4-[4-(4-Cyano-2-fluoro-phenoxy)-pyrazolo[3,4-d]pyrimidin-1-yl]-piperidine-1-carboxylic acid tert-butyl ester] was tested, and the EC50 was 0.28 µM.
`CC(C)(C)OC(=O)N1CCC(n2ncc3c(Oc4ccc(C#N)c(F)c4)ncnc32)CC1` [Example 48, 4-[4-(4-Cyano-3-fluoro-phenoxy)-pyrazolo[3,4-d]pyrimidin-1-yl]-piperidine-1-carboxylic acid tert-butyl ester] gave an EC50 of 0.22 µM.
Compound `CC(C)(C)OC(=O)N1CCC(n2ncc3c(Oc4c(C#N)ccc(F)c4F)ncnc32)CC1` [Example 49, 4-[4-(6-Cyano-2,3-difluoro-phenoxy)-pyrazolo[3,4-d]pyrimidin-1-yl]-piperidine-1-carboxylic acid tert-butyl ester] has an EC50 of 0.048 µM.
Compound `CC(C)(C)OC(=O)N1CCC(n2ncc3c(Oc4cc(F)c(F)cc4C#N)ncnc32)CC1` [Example 50, 4-[4-(2-Cyano-4,5-difluoro-phenoxy)-pyrazolo[3,4-d]pyrimidin-1-yl]-piperidine-1-carboxylic acid tert-butyl ester] has an EC50 of 0.69 µM.
With `CC(C)(C)OC(=O)N1CCC(n2ncc3c(Oc4ccc(Cl)cc4C#N)ncnc32)CC1` [Example 51, 4-[4-(4-Chloro-2-cyano-phenoxy)-pyrazolo[3,4-d]pyrimidin-1-yl]-piperidine-1-carboxylic acid tert-butyl ester] the EC50 was 0.11 µM.
Work on `CC(C)(C)OC(=O)N1CCC(n2ncc3c(Oc4ccc(Br)cc4C#N)ncnc32)CC1` [Example 52, 4-[4-(4-Bromo-2-cyano-phenoxy)-pyrazolo[3,4-d]pyrimidin-1-yl]-piperidine-1-carboxylic acid tert-butyl ester] yielded an EC50 of 0.75 µM.
`CC(C)(C)OC(=O)N1CCC(n2ncc3c(Oc4cc(F)cc(C(F)(F)F)c4)ncnc32)CC1` [Example 53, 4-[4-(3-Fluoro-5-trifluoromethyl-phenoxy)-pyrazolo[3,4-d]pyrimidin-1-yl]-piperidine-1-carboxylic acid tert-butyl ester] showed an EC50 of 0.49 µM.
In the case of `CC(C)(C)OC(=O)N1CCC(n2ncc3c(Oc4ccc(C(F)(F)F)cc4Cl)ncnc32)CC1` [Example 54, 4-[4-(2-Chloro-4-trifluoromethyl-phenoxy)-pyrazolo[3,4-d]pyrimidin-1-yl]-piperidine-1-carboxylic acid tert-butyl ester], the EC50 is reported as 0.083 µM.
`CC(C)(C)OC(=O)N1CCC(n2ncc3c(Oc4ccc(Cl)c(C(F)(F)F)c4)ncnc32)CC1` [Example 55, 4-[4-(4-Chloro-3-trifluoromethyl-phenoxy)-pyrazolo[3,4-d]pyrimidin-1-yl]-piperidine-1-carboxylic acid tert-butyl ester] gave an EC50 of 0.15 µM.
`CC(C)(C)OC(=O)N1CCC(n2ncc3c(Oc4ccc(S(N)(=O)=O)cc4)ncnc32)CC1` [Example 56, 4-[4-(4-Sulfamoyl-phenoxy)-pyrazolo[3,4-d]pyrimidin-1-yl]-piperidine-1-carboxylic acid tert-butyl ester] gave an EC50 of 0.28 µM.
With `CN(C)S(=O)(=O)c1ccc(Oc2ncnc3c2cnn3C2CCN(C(=O)OC(C)(C)C)CC2)cc1` [Example 57, 4-[4-(4-Dimethylsulfamoyl-phenoxy)-pyrazolo[3,4-d]pyrimidin-1-yl]-piperidine-1-carboxylic acid tert-butyl ester] the EC50 was 0.3 µM.
